Results from US8697716B2, “Method of inhibiting C-KIT kinase” (Janssen Pharmaceutica NV, priority 2006, dated 2014).
Where a name gives a salt, the structure may show the parent alone.

What was measured:
[1] = target: isolated kinase domain of the human c-kit receptor (Homo sapiens (Human), UniProt P10721); experiment: c-Kit Fluorescence Polarization Kinase Assay; format: biochemical; conditions: 1 nM c-kit, 50 uM ATP, 45 minutes at room temperature; uncertainty +10%
Experimental: c-Kit Fluorescence Polarization Kinase Assay
The c-kit assay utilized the fluorescein-labeled phosphopeptide and the anti-phosphotyrosine antibody included in the Panvera Phospho-Tyrosine Kinase Kit (Green) supplied by Invitrogen. When c-kit phosphorylated the poly Glu4Tyr, the fluorescein-labeled phosphopeptide was displaced from the anti-phosphotyrosine antibody by the phosphorylated poly Glu4Tyr, thus decreasing the FP value. The c-kit kinase reaction was incubated at room temperature for 45 minutes under the following conditions: 1 nM c-kit (ProQinase, lot SP005), 100 ug/mL poly Glu4Tyr, 50 uM ATP, 5 mM MgCl2, 1 mM DTT, 0.01% Tween-20, 1% DMSO or compound in […], pH 7.5. The kinase reaction was stopped with the addition of EDTA. The fluorescein-labeled phosphopeptide and the anti-phosphotyrosine antibody were added and incubated for 30 minutes at room temperature and fluorescence polarization was read. Data points were an average of triplicate samples. Inhibition and IC50 data analysis were done with GraphPad Prism using a non-linear regression fit with a multiparamater, sigmoidal dose-response (variable slope) equation.

[2] = test system: BR-1 cells; experiment: c-Kit BR-1 Assay (inhibition of BR-1 cell proliferation); format: cell-based; conditions: Canis lupus familiaris; BR-1 dog mastocytoma line, constitutive-active mutant KIT; 72 hours, Cell TiterGlo
Experimental: Immediately following plating (time zero), 6 wells containing cells are treated with 100 μl of Promega Cell TiterGlo reagent and incubated 10 min with shaking. The intensity of the Cell TiterGlo signal (1 sec/well) is determined using a luminometer. The remaining cells are cultured 72 hours (37° C. and 5% CO2). Following the 72-hour growth interval, 100 μl of Promega Cell TiterGlo reagent is added to each well. The plates are incubated an additional 10 minutes with shaking and the intensity of the Cell TiterGlo signal (1 sec/well) is determined using a luminometer. Cell proliferation is defined by the difference between the time zero and time 72 hour signals.

isolated kinase domain of the human c-kit receptor, sequence (P10721 589-937): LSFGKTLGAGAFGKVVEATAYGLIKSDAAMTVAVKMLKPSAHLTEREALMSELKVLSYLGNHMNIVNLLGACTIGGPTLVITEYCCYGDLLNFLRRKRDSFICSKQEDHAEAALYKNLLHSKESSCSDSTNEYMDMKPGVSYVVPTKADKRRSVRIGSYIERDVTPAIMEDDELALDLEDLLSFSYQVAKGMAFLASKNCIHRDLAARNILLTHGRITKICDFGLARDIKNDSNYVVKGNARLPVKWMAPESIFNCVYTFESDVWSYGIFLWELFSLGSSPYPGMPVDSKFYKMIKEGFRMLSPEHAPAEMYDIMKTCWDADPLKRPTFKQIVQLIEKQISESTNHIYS

For `N#Cc1c[nH]c(C(=O)Nc2ccc(C3CCN(C(=O)CCN4CCOCC4)CC3)cc2C2=CCCCC2)n1` [Compound 8, 4-Cyano-1H-imidazole-2-carboxylic acid{2-cyclohex-1-enyl-4-[1-(3-morpholin-4-yl-propionyl)-piperidin-4-yl]-phenyl}-amide], the IC50 [1] was 42 nM.

For `CN1CCN(c2ccc(NC(=O)c3ccc(C#N)o3)c(C3=CCCCC3)c2)CC1` [Compound 11, 5-Cyano-furan-2-carboxylic acid [2-cyclohex-1-enyl-4-(4-methyl-piperazin-1-yl)-phenyl]-amide], the IC50 [1] was 150 nM.

Work on `CN1CCN(c2ccc(NC(=O)c3ccc(C#N)o3)c(C3=CCOCC3)c2)CC1` [Compound 12] yielded an IC50 [1] of over 250 nM.

In the case of `N#Cc1c[nH]c(C(=O)Nc2ccc(C3CCNCC3)cc2C2=CCCCC2)c1` [Compound 13, 4-Cyano-1H-pyrrole-2-carboxylic acid (2-cyclohex-1-enyl-4-piperidin-4-yl-phenyl)-amide trifluoroacetic acid salt], the IC50 [1] is reported as 260 nM.

`N#Cc1c[nH]c(C(=O)Nc2ccc(C3CCNCC3)cc2C2=CCCCC2)n1` [Compound 14, 4-Cyano-1H-imidazole-2-carboxylic acid (2-cyclohex-1-enyl-4-piperidin-4-yl-phenyl)-amide trifluoroacetic acid salt] gave an IC50 [1] of 71 nM.

Work on `CC(=O)N1CCC(c2ccc(NC(=O)c3nc(C#N)c[nH]3)c(C3=CCCCC3)c2)CC1` [Compound 16, 4-Cyano-1H-imidazole-2-carboxylic acid [4-(1-acetyl-piperidin-4-yl)-2-cyclohex-1-enyl-phenyl]-amide] yielded an IC50 [1] of 57 nM.

For `N#Cc1c[nH]c(C(=O)Nc2ccc(C3CCN(Cc4ccccn4)CC3)cc2C2=CCCCC2)n1` [Compound 21, 4-Cyano-1H-imidazole-2-carboxylic acid [2-cyclohex-1-enyl-4-(1-pyridin-2-ylmethyl-piperidin-4-yl)-phenyl]-amide trifluoroacetic acid salt], the IC50 [1] was 50 nM.

With `N#Cc1c[nH]c(C(=O)Nc2ccc(C3CCN(CCO)CC3)cc2C2=CCCCC2)n1` [Compound 26, 4-Cyano-1H-imidazole-2-carboxylic acid{2-cyclohex-1-enyl-4-[1-(2-hydroxy-ethyl)-piperidin-4-yl]-phenyl}-amide trifluoroacetic acid salt] the IC50 [1] was 26 nM.

Compound `N#CCCN1CCC(c2ccc(NC(=O)c3nc(C#N)c[nH]3)c(C3=CCCCC3)c2)CC1` [Compound 27, 4-Cyano-1H-imidazole-2-carboxylic acid {4-[1-(2-cyano-ethyl)-piperidin-4-yl]-2-cyclohex-1-enyl-phenyl}-amide trifluoroacetic acid salt] has an IC50 [1] of 80 nM.

`N#Cc1c[nH]c(C(=O)Nc2ccc(C3CCS(=O)(=O)CC3)cc2C2=CCCCC2)n1` [Compound 35, 4-Cyano-1H-imidazole-2-carboxylic acid [2-cyclohex-1-enyl-4-(1,1-dioxo-hexahydro-1λ^6-thiopyran-4-yl)-phenyl]-amide] was tested, and the IC50 [1] was 73 nM.

Compound `CC(=O)N1CCC(c2ccc(NC(=O)c3nc(C#N)c[nH]3)c(C3=CCS(=O)(=O)CC3)c2)CC1` [Compound 37, 4-Cyano-1H-imidazole-2-carboxylic acid [4-(1-acetyl-piperidin-4-yl)-2-(1,1-dioxo-1,2,3,6-tetrahydro-1λ^6-thiopyran-4-yl)-phenyl]-amide] has an IC50 [1] of over 250 nM.

Work on `CN(C)CC(=O)N1CCC(c2ccc(NC(=O)c3nc(C#N)c[nH]3)c(C3=CCCCC3)c2)CC1` [Compound 38, 4-Cyano-1H-imidazole-2-carboxylic acid{2-cyclohex-1-enyl-4-[1-(2-dimethylamino-acetyl)-piperidin-4-yl]-phenyl}-amide] yielded an IC50 [2] of 90 nM.

In the case of `CS(=O)(=O)CCN1CCC(c2ccc(NC(=O)c3nc(C#N)c[nH]3)c(C3=CCCCC3)c2)CC1` [Compound 40, 4-Cyano-1H-imidazole-2-carboxylic acid{2-cyclohex-1-enyl-4-[1-(2-methanesulfonyl-ethyl)-piperidin-4-yl]-phenyl}-amide], the IC50 [2] is reported as 250 nM.

Compound `N#Cc1c[nH]c(C(=O)Nc2ccc(C3CCN(C(=O)c4cc[n+]([O-])cc4)CC3)cc2C2=CCCCC2)n1` [Compound 41, 4-Cyano-1H-imidazole-2-carboxylic acid {2-cyclohex-1-enyl-4-[1-(1-oxy-pyridine-4-carbonyl)-piperidin-4-yl]-phenyl}-amide] has an IC50 [1] of 35 nM.

`N#Cc1c[nH]c(C(=O)Nc2ccc(C3CCN(CC(=O)O)CC3)cc2C2=CCCCC2)n1` [Compound 47, (4-{4-[(4-Cyano-1H-imidazole-2-carbonyl)-amino]-3-cyclohex-1-enyl-phenyl}-piperidin-1-yl)-acetic acid trifluoroacetic acid salt] gave an IC50 [1] of 100 nM.

`CC(C)(N)CC(=O)N1CCC(c2ccc(NC(=O)c3nc(C#N)c[nH]3)c(C3=CCCCC3)c2)CC1` [Compound 48, 4-Cyano-1H-imidazole-2-carboxylic acid {4-[1-(3-amino-3-methyl-butyryl)-piperidin-4-yl]-2-cyclohex-1-enyl-phenyl}-amide trifluoroacetic acid salt] showed an IC50 [1] of 5 nM.

`C[C@@H]1CC(c2ccc(NC(=O)c3ncc(C#N)[nH]3)c(C3=CCCCC3)c2)C[C@H](C)N1` (stereo partly drawn) [Compound 51a, 5-Cyano-1H-imidazole-2-carboxylic acid [2-cyclohex-1-enyl-4-(cis-2,6-dimethyl-piperidin-4-yl)-phenyl]-amide bis trifluoroacetic acid salt] gave an IC50 [1] of 4.3 nM.

`N#Cc1cnc(C(=O)Nc2ccc(C3CCN(C(=O)[C@H](O)CO)CC3)cc2C2=CCCCC2)[nH]1` [Compound 52, 5-Cyano-1H-imidazole-2-carboxylic acid{2-cyclohex-1-enyl-4-[1-(R)-(+)-(2,3-dihydroxy-propionyl)-piperidin-4-yl]-phenyl}-amide] gave an IC50 [1] of 8 nM.

Compound `CC1(C)CC=C(c2nc(C3CCNCC3)ccc2NC(=O)c2nc(C#N)c[nH]2)CC1` [Compound 54, 4-Cyano-1H-imidazole-2-carboxylic acid [6-(4,4-dimethyl-cyclohex-1-enyl)-1′,2′,3′,4′,5′,6′-hexahydro-[2,4′]bipyridinyl-5-yl]-amide trifluoroacetic acid salt] has an IC50 [2] of 900 nM.

Compound `CN(C)CC(=O)N1CCC(c2ccc(NC(=O)c3nc(C#N)c[nH]3)c(C3=CCC(C)(C)CC3)n2)CC1` [Compound 55, 4-Cyano-1H-imidazole-2-carboxylic acid [1′-(2-dimethylamino-acetyl)-6-(4,4-dimethyl-cyclohex-1-enyl)-1′,2′,3′,4′,5′,6′-hexahydro-[2,4′]bipyridinyl-5-yl]-amide trifluoroacetic acid salt] has an IC50 [1] of 12 nM and an IC50 [2] of 250 nM.

Work on `CC1(C)CC=C(c2nc(C3CCN(CCS(C)(=O)=O)CC3)ccc2NC(=O)c2nc(C#N)c[nH]2)CC1` [Compound 56, 4-Cyano-1H-imidazole-2-carboxylic acid [6-(4,4-dimethyl-cyclohex-1-enyl)-1′-(2-methanesulfonyl-ethyl)-1′,2′,3′,4′,5′,6′-hexhydro-[2,4′]bipyridinyl-5-yl]-amide trifluoroacetic acid salt] yielded an IC50 [1] of 39 nM and an IC50 [2] of 500 nM.

With `CS(=O)(=O)CCN1CCC(c2ccc(NC(=O)c3ncc(C#N)[nH]3)c(C3=CCCCC3)n2)CC1` [Compound 58, 5-Cyano-1H-imidazole-2-carboxylic acid [6-cyclohex-1-enyl-1′-(2-methanesulfonyl-ethyl)-1′,2′,3′,4′,5′,6′-hexahydro-[2,4′]bipyridinyl-5-yl]-amide] the IC50 [2] was 1000 nM.
